Earlier results, collected in PMC7479006, “Effect of high-fat diet on the pharmacokinetics and safety of flumatinib in healthy Chinese subjects” (Cancer Chemotherapy and Pharmacology, 2020).

How the values were obtained:
[1] = set-up: method as in PMID 26096139; settings: healthy subjects; cited from earlier work
[2] = set-up: method as in PMID 18024884; settings: cited from earlier work
[3] = set-up: method as in PMID 25511575; settings: healthy subjects; cited from earlier work

N#Cc1ccnc(N2C(=O)CC[C@H]2C(=O)N(c2cncc(F)c2)[C@H](C(=O)NC2CC(F)(F)C2)c2ccccc2Cl)c1 [ivosidenib]
Increase in Cmax after a high-fat diet compared to fasting [1]: 98%

CS(=O)(=O)CCNCc1ccc(-c2ccc3ncnc(Nc4ccc(OCc5cccc(F)c5)c(Cl)c4)c3c2)o1 [lapatinib]
Increase in bioavailability after high-fat diet [2]: 325% | Increase in bioavailability after low-fat diet [2]: 167%

Cc1cn(-c2cc(NC(=O)c3ccc(C)c(Nc4nccc(-c5cccnc5)n4)c3)cc(C(F)(F)F)c2)cn1 [nilotinib]
AUC higher when taken with food than fasting [3]: 82% | Cmax higher when taken with food than fasting [3]: 112%
